Here are results for 29 compounds from PubChem BioAssay (NCI).

Structures are written as SMILES.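 96-well plates; 48 h exposure; 5 concentrations. Endpoints by linear interpolation between flanking doses. Not reached: highest tested concentration assigned. Here, GI50 denotes the concentration required for 50% inhibition of growth. TGI denotes the concentration required for complete inhibition of growth.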 Some results are limits rather than exact numbers.

One experiment relates to HS 578T breast. Nature of the experiment: growth of human tumour cells (NCI), 48 h.
In turn, `O=P(OCc1ccccc1)(OCc1ccccc1)C(O)/C=C/c1ccccc1` (stereo not given) returned a TGI of 45.1 µM.
In turn, `NCCN(CCN(C(=O)Nc1ccccc1)c1ccccc1)C(=O)Nc1ccccc1` displayed a TGI of 56 µM.
Take `C[C@H](c1ccccc1)N1C(=O)[C@@H](OCc2ccccc2)[C@H]1[C@H](COC(=O)COCc1ccccc1)OCc1ccccc1`: the TGI is above 100 µM.
On the same count and under the same terms, then `O=C1CC(c2ccccc2Cl)C2(C(=O)NC(=O)NC2=O)C(c2ccccc2Cl)C1` (stereo not given), with above 100 µM.
As to `CCN(CCCCCCCCCCN1CC(=O)N(CCCCCCCCCCN(CC)Cc2ccccc2OC)CC1=O)Cc1ccccc1OC`, the GI50 is 1.35 µM and the TGI came to 4.26 µM.
In turn, `O=C1N/N=C\c2ccc(cc2)OCc2cccc(n2)COc2ccc(cc2)/C=N\NC1=O` yielded a TGI above 25 µM.
In turn, `CC1CCc2sc3nc4n(c(=O)c3c2C1)CC(C)S4` (stereo not given) gave a TGI above 100 µM.
The compound `N#Cc1nc(CCCN2C(=O)c3ccccc3C2=O)oc1N` came in with a TGI above 100 µM.
For the compound `CN(C)CCCNc1cc(O)c2c(c1O)C(=O)c1ccccc1C2=O`, the TGI was 50.2 µM.
In turn, `O=c1c(-c2ccccc2)c(SCCN2CCCCCC2)n(-c2ccccc2)c(=S)n1-c1ccccc1` had a TGI above 100 µM.

Another experiment concerns IGROV1 ovarian. Nature of the experiment: growth of human tumour cells (NCI), 48 h.
In turn, `Cn1c2c(c3ccccc31)CCN1C(=O)C34CCCC3CC21S4` (stereo not given) showed a TGI above 100 µM.
Regarding `Clc1ccc(OCc2nnc(COc3ccc(OCc4nnc(COc5ccc(Cl)cc5Cl)o4)c(Cl)c3)o2)c(Cl)c1`, the TGI is 38.1 µM.
On the same count and under the same terms, then `O=c1ccn(-c2ccccn2)c(=O)n1-c1ccccn1`, with above 100 µM; and `O=C1NC(=S)NC(=O)C1C(c1ccc(Cl)cc1)C1C(=O)NC(=S)NC1=O`, with above 100 µM; and `COC(=O)C1=C(C(=O)OC)SC(=C2SC3=C(SC(=C4SCCS4)S3)S2)S1`, with above 100 µM.
For `CCC(=O)Nc1ccc(NS(=O)(=O)c2ccc(Cl)cc2)cc1`, the TGI was above 100 µM.
For `c1c(N2CCOCC2)ssc1=[N+]1CCOCC1`, the TGI is above 100 µM.
With `CC(C)(C)c1cc(/C=C2/NC(=O)NC2=O)cc(C(C)(C)C)c1O`, the TGI turned out to be 31.1 µM.
Take `CCCO/N=[N+](\[O-])N(CC)CC`: the TGI was above 100 µM.
`Cc1cnc2[nH]c(-c3cccc(F)c3)cc(=O)c2c1` displayed a TGI above 100 µM.
Regarding `CN(C)CCNc1c([N+](=O)[O-])sc2ccc(Cl)cc12`, the TGI is above 100 µM.
On to `CCOC(=O)Cn1nnc2cc(Nc3c(C)[n+]([O-])c4cc(F)c(OCC)cc4[n+]3[O-])ccc21`, for which the TGI is above 100 µM.
For the compound `S=c1[nH]nc(Cn2c3ccc(Br)cc3c3nc4ccccc4nc32)n1C1CCCCC1`, the TGI is above 100 µM.
Turning to `COc1ccc2c(c1)-c1c(c3cc(OC)ccc3n1CCN(C)C)CC2`, the TGI came to 25.9 µM.
The compound `CCCCCCCCCCCCNC(=O)CCC(NC(=O)c1ccc(N(C)Cc2cnc3nc(N)nc(N)c3n2)cc1)C(=O)NCCCCCCCCCCCC` (stereo not given) returned a TGI above 100 µM.
On the same count and under the same terms, as for `O=P(OCc1ccccc1)(OCc1ccccc1)C(O)/C=C/c1ccccc1` (stereo not given), the figure is 49.2 µM; as for `NCCN(CCN(C(=O)Nc1ccccc1)c1ccccc1)C(=O)Nc1ccccc1`, 36.7 µM.
Still for that read-out and setting: as for `C[C@H](c1ccccc1)N1C(=O)[C@@H](OCc2ccccc2)[C@H]1[C@H](COC(=O)COCc1ccccc1)OCc1ccccc1`, the figure is above 100 µM.
Compound `O=C1CC(c2ccccc2Cl)C2(C(=O)NC(=O)NC2=O)C(c2ccccc2Cl)C1` (stereo not given) gave a TGI of 95.9 µM.
Consider `CCN(CCCCCCCCCCN1CC(=O)N(CCCCCCCCCCN(CC)Cc2ccccc2OC)CC1=O)Cc1ccccc1OC`, for which the GI50 is 1.57 µM and the TGI amounted to 3.62 µM.
Take `O=C1N/N=C\c2ccc(cc2)OCc2cccc(n2)COc2ccc(cc2)/C=N\NC1=O`: the TGI is above 25 µM.
On to `CC1CCc2sc3nc4n(c(=O)c3c2C1)CC(C)S4` (stereo not given), for which the TGI was above 100 µM.
In the case of `N#Cc1nc(CCCN2C(=O)c3ccccc3C2=O)oc1N`, the TGI is above 100 µM.
`CC(=O)OC1CC2(O)C(CCC3(C)C(c4ccc(=O)oc4)CCC32O)C2(C)C1=CC(O)C1OC12` (stereo not given) yielded a TGI of 0.753 µM.
As for `CN(C)CCCNc1cc(O)c2c(c1O)C(=O)c1ccccc1C2=O`, the TGI was found to be 24.6 µM.
With `O=c1c(-c2ccccc2)c(SCCN2CCCCCC2)n(-c2ccccc2)c(=S)n1-c1ccccc1`, the TGI was above 100 µM.

A further experiment has as its system MOLT-4 leukemia. Nature of the experiment: growth of human tumour cells (NCI), 48 h.
On to `Cn1c2c(c3ccccc31)CCN1C(=O)C34CCCC3CC21S4` (stereo not given), for which the TGI was above 100 µM.
Compound `O=c1ccn(-c2ccccn2)c(=O)n1-c1ccccn1` yielded a TGI above 100 µM.
Regarding `O=C1NC(=S)NC(=O)C1C(c1ccc(Cl)cc1)C1C(=O)NC(=S)NC1=O`, the TGI is above 100 µM.
On the same count and under the same terms, then `COC(=O)C1=C(C(=O)OC)SC(=C2SC3=C(SC(=C4SCCS4)S3)S2)S1`, with above 100 µM; and `CCC(=O)Nc1ccc(NS(=O)(=O)c2ccc(Cl)cc2)cc1`, with above 100 µM; and `c1c(N2CCOCC2)ssc1=[N+]1CCOCC1`, with above 100 µM.
`CC(C)(C)c1cc(/C=C2/NC(=O)NC2=O)cc(C(C)(C)C)c1O` gave a TGI of 44.6 µM.
Consider `COc1cccc(N2C(=O)CS(=O)(=O)C2c2cccc(Oc3ccccc3)c2)c1` (stereo not given), for which the TGI is 57.6 µM.
`CCCO/N=[N+](\[O-])N(CC)CC` displayed a TGI above 100 µM.
On the same count and under the same terms, then `Cc1cnc2[nH]c(-c3cccc(F)c3)cc(=O)c2c1`, with above 100 µM; and `CC(=O)N(C)c1ccc(Nc2ccnc3ccc4nn(C)nc4c23)cc1`, with 58 µM; and `CN(C)CCNc1c([N+](=O)[O-])sc2ccc(Cl)cc12`, with 7.73 µM.
Take `CCOC(=O)Cn1nnc2cc(Nc3c(C)[n+]([O-])c4cc(F)c(OCC)cc4[n+]3[O-])ccc21`: the TGI is above 100 µM.
The compound `S=c1[nH]nc(Cn2c3ccc(Br)cc3c3nc4ccccc4nc32)n1C1CCCCC1` returned a TGI of 28.6 µM.
The same measure, in the same setting: as for `COc1ccc2c(c1)-c1c(c3cc(OC)ccc3n1CCN(C)C)CC2`, the figure is 33.8 µM.
As for `Oc1c(OCc2nnc(CCCCCCCCc3nnc(COc4ccc5ccccc5c4O)o3)o2)ccc2ccccc12`, the TGI is above 100 µM.
As for `CCCCCCCCCCCCNC(=O)CCC(NC(=O)c1ccc(N(C)Cc2cnc3nc(N)nc(N)c3n2)cc1)C(=O)NCCCCCCCCCCCC` (stereo not given), the TGI was above 100 µM.
The compound `O=P(OCc1ccccc1)(OCc1ccccc1)C(O)/C=C/c1ccccc1` (stereo not given) had a TGI of 48.1 µM.
The same measure, in the same setting: as for `NCCN(CCN(C(=O)Nc1ccccc1)c1ccccc1)C(=O)Nc1ccccc1`, the figure is above 100 µM; as for `C[C@H](c1ccccc1)N1C(=O)[C@@H](OCc2ccccc2)[C@H]1[C@H](COC(=O)COCc1ccccc1)OCc1ccccc1`, above 100 µM; as for `O=C1CC(c2ccccc2Cl)C2(C(=O)NC(=O)NC2=O)C(c2ccccc2Cl)C1` (stereo not given), above 100 µM.
Take `CCN(CCCCCCCCCCN1CC(=O)N(CCCCCCCCCCN(CC)Cc2ccccc2OC)CC1=O)Cc1ccccc1OC`: the GI50 was 1.8 µM and the TGI was found to be 8.04 µM.
`O=C1N/N=C\c2ccc(cc2)OCc2cccc(n2)COc2ccc(cc2)/C=N\NC1=O` yielded a TGI above 25 µM.
The compound `N#Cc1nc(CCCN2C(=O)c3ccccc3C2=O)oc1N` returned a TGI above 100 µM.
On to `CC(=O)OC1CC2(O)C(CCC3(C)C(c4ccc(=O)oc4)CCC32O)C2(C)C1=CC(O)C1OC12` (stereo not given), for which the TGI worked out at 0.0366 µM.
In turn, `O=c1c(-c2ccccc2)c(SCCN2CCCCCC2)n(-c2ccccc2)c(=S)n1-c1ccccc1` showed a TGI of 57.5 µM.
